Data on 19 compounds can be found in patent publication US20260092054A1, “FUSED RING COMPOUND AND PHARMACEUTICAL CONTAINING SAME” (KAKEN PHARMACEUTICAL CO., LTD., priority 2022, published 2026).

For one experiment, the system named is human STAT6. Put plainly: Human STAT6 dependent reporter activity (IL-4 stimulated STAT6 reporter assay using STAT6-HEK293 cells). The experiment is classed as cell-based. Conditions: Homo sapiens, IL-4 stimulation, luciferase activity, read-out: Inhibition rate (%); for inhibition at 0.1 µM: compound 0.1 μmol/L; for inhibition at 1 µM: compound 1 μmol/L. On the procedure:
Test Example 2: Measurement of Human STAT6 Dependent Reporter Activity
1) Construction of Human STAT6-HEK293 Cells
HEK 293 cells maintenance cultured by [Penicillin-Streptomycin (Thermo Fisher Scientific) and FBS, 1 vol % and 10 vol % respectively added to DMEM high glucose (Thermo Fisher Scientific)](manufactured by ATCC) were collected, and suspended in 10 mL of 0.5% BSA/PBS. 1×10^6 cells were collected, the supernatant was removed by centrifuging, and the cells were suspended in 100 μL of Nucleofector solution V (manufactured by Lonza K.K.). 2 μg of STAT6 vector [plasmid DNAs incorporating human STAT6 sequences in pcDNA3.1 (Invitrogen)] was added, and the STAT6 vector was introduced into the HEK293 cells using the program Q-001 initially registered in the Nucleofector®2b. A cell line (STAT6-HEK293 cells) consistently expressing STAT6 was acquired by selecting resistant cells in a medium containing Geneticin® (manufactured by Thermo Fisher Scientific). 2) STAT6 reporter assay using STAT6-HEK293 cells 3×10^6 STAT6-HEK293 cells maintained in assay medium [culture medium supplemented with 1 vol % Geneticin®] were harvested and seeded in a 10 cm dish. 3 μg of a STAT6 reporter vector [plasmid in which a sequence containing a STAT6 binding sequence and a C/EBP binding sequence in tandem was incorporated into pGL4.27 (manufactured by Promega Corporation)] and 9 μL of FuGENE® HD transfection reagent (manufactured by Promega Corporation) were added to 500 μL of Opti-MEM® (manufactured by Thermo Fisher Scientific) to prepare transfection solutions. The transfection solution was vortexed and left to stand for about 5 minutes, then added dropwise to the STAT6-HEK293 cells, which were then cultured overnight in a C02 incubator to produce STAT6 reporter cells.
The prepared STAT6 reporter cells were seeded on B&W isoplate-96 TC (PerkinElmer Japan Co., Ltd.) (3×10^4 cells/50 μL/well) and cultured overnight in a C02 incubator (37° C., 5% C02). 50 μL of assay medium was added to each well instead of the STAT6 reporter cells. The compound addition solution was prepared by diluting the DMSO solution of the example compound 250-fold using the assay medium. 20 μL of compound addition solution or 0.4 vol % DMSO-containing assay medium was added to the plate, and the plate was then cultured in a CO2 incubator for 1 hour. 10 μL of 80 ng/mL human IL-4 solution (Peprotech) or assay medium was added to each well, and the cells were cultured in a CO2 incubator for 6 hours.
STAT6 reporter activity was measured using the Bright-Glo® Luciferase Assay System (Promega). 100 μL of Bright-Glo® reagent was added to each well, and luciferase activity was measured using Infinite® F500. The inhibition rate of each Example compound was calculated by the following formula using the luciferase activity value (G) when no Example compound was added and stimulation with IL-4 was performed, the luciferase activity value (H) when no Example compound was added and stimulation with IL-4 was not performed, and the luciferase activity value (I) when each Example compound was treated and stimulation with IL-4 was performed.
Note that the viable cell rate under each condition was 70% or more, and it was determined that the luciferase activity inhibitory activity of each example compound was appropriately evaluated.

For the next experiment, the target named is T1, human STAT6/pIL-4Rα (Homo sapiens, UniProt P42226).
T1 construct: histidine tag
T1 sequence (P42226 123-658): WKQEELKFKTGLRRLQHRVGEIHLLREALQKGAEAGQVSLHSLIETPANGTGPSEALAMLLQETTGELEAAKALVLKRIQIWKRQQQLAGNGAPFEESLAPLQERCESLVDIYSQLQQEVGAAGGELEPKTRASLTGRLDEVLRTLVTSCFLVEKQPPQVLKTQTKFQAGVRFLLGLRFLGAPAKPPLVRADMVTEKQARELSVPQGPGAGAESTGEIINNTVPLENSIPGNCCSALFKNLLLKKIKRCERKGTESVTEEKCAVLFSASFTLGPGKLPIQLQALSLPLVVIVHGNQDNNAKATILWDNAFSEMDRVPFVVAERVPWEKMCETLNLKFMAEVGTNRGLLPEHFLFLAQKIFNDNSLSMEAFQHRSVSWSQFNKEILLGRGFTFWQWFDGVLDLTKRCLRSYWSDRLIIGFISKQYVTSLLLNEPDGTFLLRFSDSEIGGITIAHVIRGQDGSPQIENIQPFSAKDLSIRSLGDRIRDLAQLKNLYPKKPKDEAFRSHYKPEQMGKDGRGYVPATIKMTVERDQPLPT
Put plainly: Binding inhibitory activity between human STAT6/pIL-4Rα by fluorescence polarization method. Conditions: rhSTAT6 (123-658) / FAM-pIL-4Rα peptide. On the procedure:
Test Example 1: Measurement of Binding Inhibitory Activity Between Human STAT6/pIL-p 4Rα by Fluorescence Polarization Method
1) Construction of Histidine Tag-Fused Recombinant Human STAT6 (123 to 658 Region)
A histidine tag-fused recombinant human STAT6 (hereinafter referred to as rhSTAT6) expression vector [plasmid DNA in which a nucleic acid sequence containing human STAT6 (123-658 region) was inserted into a pET28a(+) vector (Novagen)] was inserted into E. coli, and the cells were cultured overnight under culturing conditions at 17° C. with IPTG treatment. After disrupting E. coli with a high-pressure homogenizer (EmulsiFlex-C3, manufactured by AVESTIN, Inc.), affinity purification using Ni-NTA agarose (manufactured by Qiagen), cation exchange chromatography using HiTrap® CM-FF (manufactured by GE healthcare), and gel filtration chromatography using Superdex® 200 10/300GL (manufactured by GE healthcare) were performed to obtain rhSTAT6.
2) Measurement of Binding Inhibitory Activity Between Human STAT6/pIL-4Rα by Fluorescence Polarization Method
A DMSO solution of the example compound was diluted with an assay buffer [for example, a buffer containing 50 mmol/L NaCl, 10 mmol/L HEPES (pH 7.0), 1 mmol/L DTT, 1 mmol/L EDTA, and 0.01 vol % NP-40, and the like] to prepare a compound-added solution. The DMSO concentration in the compound addition solution was adjusted to 1 or 2 vol %. 10 μL of the compound addition solution and an assay buffer containing 1 or 2 vol % DMSO were added to each well of a 384-well plate. 5 μL of an assay buffer solution containing rhSTAT6 (rhSTAT6 concentration: for example, 1 μmol/L) or an assay buffer was added to each well of a 384-well plate. After leaving the plate at room temperature for 30 minutes in the dark, 5 μL of an assay buffer solution (FAM-pIL-4Rp concentration: for example, 80 nmol/L) containing FAM-labeled phosphorylated IL-4Rα peptide (sequence: FAM-Ala-pTyr-Lys-Pro-Phe-Gln-Asp-Leu-IIe-NH2) (hereinafter, FAM-pIL-4Rp) or an assay buffer containing 2 vol % DMSO was added to each well of the 384-well plate. The mixture was left to stand at room temperature for 30 minutes in the dark, and then centrifuged (200 g, 1 minute, room temperature). Fluorescence polarization values were measured using Infinite (registered trademark) F500 (manufactured by Tecan Japan Co., Ltd.) (Excitation: 485 nm, Emission: 535 nm). The inhibition rate of each Example compound was calculated according to the following formula using the fluorescence polarization value (A) when rhSTAT6 and FAM-pIL-4Rp were added without adding the Example compound, the fluorescence polarization value (B) when FAM-pIL-4Rp was added without adding the Example compound and rhSTAT6, and the fluorescence polarization value (C) when each Example compound, rhSTAT6, and FAM-pIL-4Rp were added.
In the evaluation of each example compound, the 50% inhibitory concentration (IC50) of each example compound was calculated from a linear function equation of a straight line connecting two points sandwiching 50%.

In the case of `CC1CC(C)N(c2ccc(-c3cc4ccnc(C(=O)Nc5ccc(F)c(C(N)=O)c5)c4n3CC3(C#N)CC3)cc2)C1=O` (single isomer, unassigned) [Ex. 221], in the experiment on human STAT6, the inhibition at 0.1 µM was found to be 60% and the inhibition at 1 µM amounted to 94%. The compound also came in with an IC50 on human STAT6/pIL-4Rα of 360 nM.
Turning to `CC1CC(C)N(c2ccc(-c3cc4ccnc(C(=O)Nc5cccc(C(N)=O)c5F)c4n3CC3(C#N)CC3)cc2)C1=O` (single isomer, unassigned) [Ex. 223], the inhibition at 0.1 µM in the experiment with human STAT6 is 67%. The same compound showed an IC50 on human STAT6/pIL-4Rα of 320 nM.
Take `CCn1c(-c2ccc(-n3cnn(C)c3=O)cc2)nc2cc(C(F)(F)F)cc(C(=O)Nc3cccc(C(N)=O)c3F)c21` [Ex. 1]: in the experiment on human STAT6, the inhibition at 0.1 µM was found to be 22% and the inhibition at 1 µM amounted to 93%. Also, on human STAT6/pIL-4Rα, the half-inhibitory concentration (IC50) was 390 nM.
On the same counts, the results for `CCn1c(-c2ccc3c(c2)CCN3C(C)=O)nc2cc(C(F)(F)F)cc(C(=O)Nc3cccc(C(N)=O)c3F)c21` [Ex. 2] are 14%, 72% and 490 nM.
On to `CCn1c(-c2ccc(N3CCCC3=O)cc2)nc2cc(Br)cc(C(=O)Nc3cccc(C(N)=O)c3)c21` [Ex. 4], for which, in the experiment with human STAT6, the inhibition at 0.1 µM came to 12% and the inhibition at 1 µM is 64%. This compound also displayed an IC50 at human STAT6/pIL-4Rα of 740 nM.
Consider `CCn1c(-c2ccc(-n3cccn3)cc2)nc2cc(Br)cc(C(=O)Nc3cccc(C(N)=O)c3)c21` [Ex. 5], for which, in the experiment on human STAT6, the inhibition at 0.1 µM was determined as 8% and the inhibition at 1 µM was 63%. This compound also yielded a half-inhibitory concentration (IC50) at human STAT6/pIL-4Rα of 660 nM.
On to `CCn1c(-c2ccc(-n3nccn3)cc2)nc2cc(Br)cc(C(=O)Nc3cccc(C(N)=O)c3)c21` [Ex. 6], for which, in the experiment with human STAT6, the inhibition at 0.1 µM was -1% and the inhibition at 1 µM amounted to 52%. On human STAT6/pIL-4Rα, the IC50 came to 1140 nM.
`CCn1c(-c2ccc3c(c2)CCN3C(C)=O)nc2cc(Br)cc(C(=O)Nc3cccc(C(N)=O)c3)c21` [Ex. 8]: in the experiment on human STAT6, the inhibition at 0.1 µM was 2% and the inhibition at 1 µM was 43%. Besides, at human STAT6/pIL-4Rα, the IC50 came to 410 nM.
With `CCn1c(-c2ccc(-n3cnn(C)c3=O)cc2)cc2cc(Br)cc(C(=O)Nc3ccc(F)c(C(N)=O)c3)c21` [Ex. 9], in the experiment with human STAT6, the inhibition at 0.1 µM was determined as 10% and the inhibition at 1 µM was 76%. The IC50 at human STAT6/pIL-4Rα was 450 nM.
With `CCn1c(-c2ccc(-n3c(C)nn(C)c3=O)cc2)cc2cc(C(F)(F)F)cc(C(=O)Nc3cccc(C(N)=O)c3F)c21` [Ex. 15], in the experiment on human STAT6, the inhibition at 0.1 µM came out at 97% and the inhibition at 1 µM turned out to be 100%. At human STAT6/pIL-4Rα, this compound showed an IC50 of 250 nM.
Take `COCCn1c(-c2ccc(-n3c(C)nn(C)c3=O)cc2)cc2cc(C(F)(F)F)cc(C(=O)Nc3ccc(F)c(C(N)=O)c3)c21` [Ex. 16]: in the experiment with human STAT6, the inhibition at 0.1 µM is 72% and the inhibition at 1 µM stood at 100%. At human STAT6/pIL-4Rα, this compound displayed an IC50 of 240 nM.
For the compound `CCn1c(-c2ccc(-n3c(C)nn(C)c3=O)cc2)cc2cccc(C(=O)Nc3ccc(F)c(C(N)=O)c3)c21` [Ex. 17], in the experiment on human STAT6, the inhibition at 0.1 µM is 81% and the inhibition at 1 µM was found to be 99%. Besides, at human STAT6/pIL-4Rα, the IC50 came out at 350 nM.
`CCn1c(-c2ccc(-n3c(C)nn(C)c3=O)cc2)cc2cc(F)cc(C(=O)Nc3ccc(F)c(C(N)=O)c3)c21` [Ex. 18]: in the experiment with human STAT6, the inhibition at 0.1 µM stood at 80% and the inhibition at 1 µM turned out to be 99%. Further, at human STAT6/pIL-4Rα, the IC50 turned out to be 350 nM.
Take `CCn1c(-c2ccc(-n3c(C)nn(C)c3=O)cn2)cc2cc(C(F)(F)F)cc(C(=O)Nc3cccc(C(N)=O)c3F)c21` [Ex. 19]: in the experiment on human STAT6, the inhibition at 0.1 µM was 42% and the inhibition at 1 µM was 98%. The compound further had an IC50 on human STAT6/pIL-4Rα of 360 nM.
Turning to `CCn1c(-c2ccc(-n3c(C)nn(C)c3=O)nc2)cc2cc(C(F)(F)F)cc(C(=O)Nc3ccc(F)c(C(N)=O)c3)c21` [Ex. 20], in the experiment on human STAT6, the inhibition at 0.1 µM came out at 50% and the inhibition at 1 µM turned out to be 98%. Moreover, the IC50 at human STAT6/pIL-4Rα is 660 nM.
In the same order, the values of `CCn1c(-c2ccc(-n3c(C)nn(C)c3=O)cc2)cc2ccnc(C(=O)Nc3ccc(F)c(C(N)=O)c3)c21` [Ex. 21] are 73%, 98% and 380 nM.
Regarding `CCn1c(-c2ccc(-n3c(C)nn(C)c3=O)cc2)cc2ccnc(C(=O)Nc3cccc(C(N)=O)c3F)c21` [Ex. 22], in the experiment on human STAT6, the inhibition at 0.1 µM turned out to be 89% and the inhibition at 1 µM came to 99%. Moreover, the IC50 at human STAT6/pIL-4Rα turned out to be 320 nM.
In the case of `CCn1c(-c2ccc(-n3c(C)nn(C)c3=O)cc2)cc2cc(C(F)(F)F)nc(C(=O)Nc3ccc(F)c(C(N)=O)c3)c21` [Ex. 23], in the experiment on human STAT6, the inhibition at 0.1 µM was 86% and the inhibition at 1 µM is 100%. In addition, at human STAT6/pIL-4Rα, the IC50 was 240 nM.
Take `Cc1nn(C)c(=O)n1-c1ccc(-c2cc3ccnc(C(=O)Nc4ccc(F)c(C(N)=O)c4)c3n2CC2CC2)cc1` [Ex. 24]: in the experiment on human STAT6, the inhibition at 0.1 µM is 54% and the inhibition at 1 µM turned out to be 98%. The IC50 on human STAT6/pIL-4Rα was determined as 320 nM.
